# Tests used:
# [1] = target: Cathepsin D (Cat D) (Homo sapiens, UniProt P07339); experiment: In vitro enzymatic Cathepsin D (Cat D) FRET assay; type: biochemical; conditions: Cathepsin D FRET assay; read-out: CatD IC50
# Outline: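 Recombinant CHO-expressed enzyme (9 nM) pre-incubated 1 h with serially diluted inhibitor in 0.05 M citrate pH 3.5, 10% DMSO final, 5 mM CHAPS. Reaction started with 20 nM FRET peptide substrate, run 1 h, stopped with Tris to neutral pH; fluorescence read at ex 500/em 580 nm.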
# [2] = target: Beta Secretase enzyme (BACE) (Homo sapiens, UniProt P56817); experiment: In vitro enzymatic BACE FRET assay; type: biochemical; conditions: average IC50, in vitro enzymatic BACE FRET assay; read-out: BACE1 FRET assay IC50
# Outline: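 Enzyme (0.2 nM) pre-incubated 1 h with serially diluted inhibitors in 0.05 M acetate pH 4.2, 10% DMSO, 100 uM genapol. Reaction started with 50 nM fluorophore/quencher peptide FRET substrate, run 1 h, stopped with Tris to neutral pH. Fluorescence read at excitation 488 nm, […].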
# [3] = test system: Aβ 40 in conditioned medium of cells stably expressing Amyloid Precursor Protein (APP); experiment: In vitro BACE cell-based assay (Aβ 40 sandwich ELISA); conditions: average IC50, HEK cell assay, Aβ 40 readout
# Outline: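 APP-expressing cells, 24 h pre-culture in DMEM/10% FBS, treated 24 h with 10-point compound dilutions from 100 or 10 μM top, 0.1% DMSO final. Secreted Aβ40 quantified by sandwich ELISA (pAb40 capture, biotinylated 6E10 detection, europium TRF); IC50 from percent inhibition versus concentration.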
# Sequence of Beta Secretase enzyme (BACE) (P56817 46-501): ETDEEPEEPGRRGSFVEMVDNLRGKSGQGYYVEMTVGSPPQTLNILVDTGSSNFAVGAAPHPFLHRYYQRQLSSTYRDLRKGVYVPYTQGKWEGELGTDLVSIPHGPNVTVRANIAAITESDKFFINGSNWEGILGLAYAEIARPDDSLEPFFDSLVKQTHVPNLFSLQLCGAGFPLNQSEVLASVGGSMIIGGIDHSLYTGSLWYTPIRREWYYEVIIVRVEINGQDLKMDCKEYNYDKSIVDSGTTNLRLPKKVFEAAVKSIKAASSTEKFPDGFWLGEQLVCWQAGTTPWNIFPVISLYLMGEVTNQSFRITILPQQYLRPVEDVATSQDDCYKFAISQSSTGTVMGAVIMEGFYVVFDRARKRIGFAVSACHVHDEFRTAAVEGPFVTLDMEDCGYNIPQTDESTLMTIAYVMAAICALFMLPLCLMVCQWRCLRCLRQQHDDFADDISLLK
# Sequence of Cathepsin D (Cat D) (P07339 65-412, species assumed): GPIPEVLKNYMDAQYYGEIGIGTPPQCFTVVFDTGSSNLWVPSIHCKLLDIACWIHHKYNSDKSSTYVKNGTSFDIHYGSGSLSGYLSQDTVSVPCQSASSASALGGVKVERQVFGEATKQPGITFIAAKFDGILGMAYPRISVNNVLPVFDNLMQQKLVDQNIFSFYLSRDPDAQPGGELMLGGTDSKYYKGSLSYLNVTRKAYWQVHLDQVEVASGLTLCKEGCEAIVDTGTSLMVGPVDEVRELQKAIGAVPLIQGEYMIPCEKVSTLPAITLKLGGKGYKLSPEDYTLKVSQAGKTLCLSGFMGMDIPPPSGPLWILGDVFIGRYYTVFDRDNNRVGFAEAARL
IC50 [1] [µM],IC50 [2] [µM],"IC50 ([3]; Homo sapiens, HEK293) [µM]",IC50 [3] [µM],Compound
104,0.026,0.139,,"CCCOc1cnc2c(Nc3ccc4c(c3)[C@@]3(C)N=C(N)C(C)(C)S(=O)(=O)[C@@H]3C[C@H](C)O4)nccc2n1 [Example 135, (4aR,6S,11bR)-3,3,6,11b-tetramethyl-N^~10^~-(2-propoxypyrido[3,4-b]pyrazin-5-yl)-4a,5,6,11b-tetrahydro-3H-[1]benzoxepino[4,5-b][1,4]thiazine-2,10-diamine 4,4-dioxide]"
247,0.025,0.016,,"C[C@H]1C[C@@H]2[C@](C)(N=C(N)C(C)(C)S2(=O)=O)c2cc(Nc3nccc4nc(O)cnc34)ccc2O1 [Example 136, 5-(((4aR,6S,11bR)-2-amino-3,3,6,11b-tetramethyl-4,4-dioxido-4a,5,6,11b-tetrahydro-3H-[1]benzoxepino[4,5-b][1,4]thiazin-10-yl)amino)pyrido[3,4-b]pyrazin-2(1H)-one]"
> 133,0.018,0.091,,"Cc1cc(COc2cnc3c(Nc4ccc5c(c4)[C@@]4(C)N=C(N)C(C)(C)S(=O)(=O)[C@@H]4C[C@H](C)O5)nccc3n2)on1 [Example 137, (4aR,6S,11bR)-3,3,6,11b-tetramethyl-N^~10^~-(2-((3-methyl-5-isoxazolyl)methoxy)pyrido[3,4-b]pyrazin-5-yl)-4a,5,6,11b-tetrahydro-3H-[1]benzoxepino[4,5-b][1,4]thiazine-2,10-diamine 4,4-dioxide]"
304,0.007,0.008,,"COCCOc1cnc2c(Nc3ccc4c(c3)[C@@]3(C)N=C(N)C(C)(C)S(=O)(=O)[C@@H]3C[C@H](C)O4)nccc2n1 [Example 139, (4aR,6S,11bR)-N^~10^~-(2-(2-methoxyethoxy)pyrido[3,4-b]pyrazin-5-yl)-3,3,6,11b-tetramethyl-4a,5,6,11b-tetrahydro-3H-[1]benzoxepino[4,5-b][1,4]thiazine-2,10-diamine 4,4-dioxide]"
385,0.004,0.017,,"C#CCOc1cnc2c(Nc3ccc4c(c3)[C@@]3(C)N=C(N)C(C)(C)S(=O)(=O)[C@@H]3CC(C)(C)O4)nccc2n1 [Example 141, (4aR,11bR)-3,3,6,6,11b-pentamethyl-N^~10^~-(2-(2-propyn-1-yloxy)pyrido[3,4-b]pyrazin-5-yl)-4a,5,6,11b-tetrahydro-3H-[1]benzoxepino[4,5-b][1,4]thiazine-2,10-diamine 4,4-dioxide]"
215,0.001,0.0005,,"C#CCOc1cnc(C(=O)Nc2ccc3c(c2)[C@@]2(C)N=C(N)C(C)(C)S(=O)(=O)[C@@H]2C[C@H](C)O3)cn1 [Example 142, N-((4aR,6S,11bR)-2-amino-3,3,6,11b-tetramethyl-4,4-dioxido-4a,5,6,11b-tetrahydro-3H-[1]benzoxepino[4,5-b][1,4]thiazin-10-yl)-5-(2-propyn-1-yloxy)-2-pyrazinecarboxamide]"
202,0.002,0.0005,,"C#CCOc1cnc(C(=O)Nc2ccc3c(c2)[C@@]2(C)N=C(N)C(C)(C)S(=O)(=O)[C@@H]2CC(C)(C)O3)cn1 [Example 143, N-((4aR,11bR)-2-Amino-3,3,6,6,11b-pentamethyl-4,4-dioxido-4a,5,6,11b-tetrahydro-3H-benzo[6,7]oxepino[4,5-b][1,4]thiazin-10-yl)-5-(prop-2-yn-1-yloxy)pyrazine-2-carboxamide]"
564,0.004,0.003,,"C[C@H]1C[C@@H]2[C@](C)(N=C(N)C(C)(C)S2(=O)=O)c2cc(NC(=O)c3ccc(OCc4ncco4)cn3)ccc2O1 [Example 144, N-((4aR,6S,11bR)-2-amino-3,3,6,11b-tetramethyl-4,4-dioxido-4a,5,6,11b-tetrahydro-3H-[1]benzoxepino[4,5-b][1,4]thiazin-10-yl)-5-(1,3-oxazol-2-ylmethoxy)-2-pyridinecarboxamide]"
329,0.001,0.002,,"C#CCOc1ccc(C(=O)Nc2ccc3c(c2)[C@@]2(C)N=C(N)C(C)(C)S(=O)(=O)[C@@H]2C[C@H](C)O3)nc1 [Example 145, N-((4aR,6S,11bR)-2-amino-3,3,6,11b-tetramethyl-4,4-dioxido-4a,5,6,11b-tetrahydro-3H-[1]benzoxepino[4,5-b][1,4]thiazin-10-yl)-5-(2-propyn-1-yloxy)-2-pyridinecarboxamide]"
804,0.005,0.004,,"C[C@H]1C[C@@H]2[C@](C)(N=C(N)C(C)(C)S2(=O)=O)c2cc(Nc3nccc4nc(OCc5ccn(C)n5)cnc34)ccc2O1 [Example 146, (4aR,6S,11bR)-3,3,6,11b-tetramethyl-N^~10^~-(2-((1-methyl-1H-pyrazol-3-yl)methoxy)pyrido[3,4-b]pyrazin-5-yl)-4a,5,6,11b-tetrahydro-3H-[1]benzoxepino[4,5-b][1,4]thiazine-2,10-diamine 4,4-dioxide]"
1280,0.003,0.009,,"Cc1cc(Cl)cnc1C(=O)Nc1ccc2c(c1)[C@@]1(CF)N=C(N)C(C)(C)S(=O)(=O)[C@H]1CCO2 [Example 147, N-((4aS,11bS)-2-amino-11b-(fluoromethyl)-3,3-dimethyl-4,4-dioxido-4a,5,6,11b-tetrahydro-3H-[1]benzoxepino[4,5-b][1,4]thiazin-10-yl)-5-chloro-3-methyl-2-pyridinecarboxamide]"
710,0.012,0.093,,"CC1(C)C(N)=N[C@]2(CF)c3cc(Nc4nccc5cc(Cl)cnc45)ccc3OCC[C@H]2S1(=O)=O [Example 148, (4aR,11bS)-N^~10^~-(3-chloro-1,7-naphthyridin-8-yl)-11b-(fluoromethyl)-3,3-dimethyl-4a,5,6,11b-tetrahydro-3H-[1]benzoxepino[4,5-b][1,4]thiazine-2,10-diamine 4,4-dioxide]"
> 400,0.009,0.044,,"Cc1cc(Cl)cnc1C(=O)Nc1ccc2c(c1)[C@@]1(CF)N=C(N)C(C)(C)S(=O)(=O)[C@@H]1CCO2 [Example 149, N-((4aR,11bS)-2-amino-11b-(fluoromethyl)-3,3-dimethyl-4,4-dioxido-4a,5,6,11b-tetrahydro-3H-[1]benzoxepino[4,5-b][1,4]thiazin-10-yl)-5-chloro-3-methyl-2-pyridinecarboxamide]"
> 400,0.227,1.4,,"CC(C)Oc1cnc2c(Nc3ccc4c(c3)[C@@]3(CF)N=C(N)C(C)(C)S(=O)(=O)[C@@H]3CCO4)nccc2n1 [Example 150, (4aR,11bS)-11b-(fluoromethyl)-3,3-dimethyl-N^~10^~-(2-(1-methylethoxy)pyrido[3,4-b]pyrazin-5-yl)-4a,5,6,11b-tetrahydro-3H-[1]benzoxepino[4,5-b][1,4]thiazine-2,10-diamine 4,4-dioxide]"
> 400,0.037,0.068,,"COc1cnc2c(Nc3ccc4c(c3)[C@@]3(CF)N=C(N)C(C)(C)S(=O)(=O)[C@@H]3CCO4)nccc2n1 [Example 151, (4aR,11bS)-11b-(fluoromethyl)-N^~10^~-(2-methoxypyrido[3,4-b]pyrazin-5-yl)-3,3-dimethyl-4a,5,6,11b-tetrahydro-3H-[1]benzoxepino[4,5-b][1,4]thiazine-2,10-diamine 4,4-dioxide]"
> 400,0.031,0.075,,"COc1cnc(C(=O)Nc2ccc3c(c2)[C@@]2(CF)N=C(N)C(C)(C)S(=O)(=O)[C@@H]2CCO3)c(C)c1 [Example 152, N-((4aR,11bS)-2-amino-11b-(fluoromethyl)-3,3-dimethyl-4,4-dioxido-4a,5,6,11b-tetrahydro-3H-[1]benzoxepino[4,5-b][1,4]thiazin-10-yl)-5-methoxy-3-methyl-2-pyridinecarboxamide]"
2070,0.002,0.006,,"Cc1cc(C#N)cnc1C(=O)Nc1ccc2c(c1)[C@@]1(CF)N=C(N)C(C)(C)S(=O)(=O)[C@H]1CCO2 [Example 153, N-((4aS,11bS)-2-amino-11b-(fluoromethyl)-3,3-dimethyl-4,4-dioxido-4a,5,6,11b-tetrahydro-3H-[1]benzoxepino[4,5-b][1,4]thiazin-10-yl)-5-cyano-3-methyl-2-pyridinecarboxamide]"
462,0.003,,0.032,"CC1(C)C(N)=N[C@]2(CF)c3cc(Nc4nccc5cc(Cl)cnc45)ccc3OCC[C@@H]2S1(=O)=O [Example 154, (4aS,11bS)-N1^~10^~-(3-chloro-1,7-naphthyridin-8-yl)-11b-(fluoromethyl)-3,3-dimethyl-4a,5,6,11b-tetrahydro-3H-[1]benzoxepino[4,5-b][1,4]thiazine-2,10-diamine 4,4-dioxide]"
> 400,0.014,0.062,,"COc1cnc2c(Nc3ccc4c(c3)[C@@]3(CF)N=C(N)C(C)(C)S(=O)(=O)[C@H]3CCO4)nccc2n1 [Example 155, (4aS,11bS)-11b-(fluoromethyl)-N^~10^~-(2-methoxypyrido[3,4-b]pyrazin-5-yl)-3,3-dimethyl-4a,5,6,11b-tetrahydro-3H-[1]benzoxepino[4,5-b][1,4]thiazine-2,10-diamine 4,4-dioxide]"

# Reference: US9309263B2, “Fused multi-cyclic sulfone compounds as inhibitors of beta-secretase and methods of use thereof” (AMGEN INC., priority 2013, dated 2016)
